# Data reported in PubChem BioAssay (NCI).
#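 How tested: cells in 96-well plates exposed to compound for 48 hours at five concentrations. At the GI50, growth is halved. TGI marks complete inhibition of growth.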
# Columns and labels:
# Experiment in all cases: DTP human tumour cell line panel, 48 h
# SK-MEL-28 melanoma = system: SK-MEL-28 melanoma
# SF-539 CNS = system: SF-539 CNS
# NCI-H226 lung = system: NCI-H226 lung
# KM12 colon = system: KM12 colon
# SK-OV-3 ovarian = system: SK-OV-3 ovarian
# EKVX NSCLC = system: EKVX NSCLC
# NCI-H460 lung = system: NCI-H460 lung
# HOP-62 NSCLC = system: HOP-62 NSCLC
# A549 NSCLC = system: A549 NSCLC
# SF-295 CNS = system: SF-295 CNS
SMILES,TGI (SK-MEL-28 melanoma) [µM],TGI (SF-539 CNS) [µM],TGI (NCI-H226 lung) [µM],TGI (KM12 colon) [µM],TGI (SK-OV-3 ovarian) [µM],TGI (EKVX NSCLC) [µM],TGI (NCI-H460 lung) [µM],TGI (HOP-62 NSCLC) [µM],TGI (A549 NSCLC) [µM],TGI (SF-295 CNS) [µM],GI50 (SF-295 CNS) [µM],GI50 (NCI-H226 lung) [µM],GI50 (KM12 colon) [µM],GI50 (SK-OV-3 ovarian) [µM],GI50 (NCI-H460 lung) [µM],GI50 (HOP-62 NSCLC) [µM],GI50 (A549 NSCLC) [µM],GI50 (SK-MEL-28 melanoma) [µM],GI50 (SF-539 CNS) [µM],GI50 (EKVX NSCLC) [µM]
Cc1cc(N(CCC#N)S(C)(=O)=O)ccc1C=Nc1ccc(C(=O)NN2C(=O)/C(=C/c3ccc(N(CCC#N)CCC#N)cc3C)N=C2c2cc([N+](=O)[O-])ccc2Cl)cc1,> 100,> 100,> 100,> 100,> 100,> 100,> 100,> 100,> 100,,,,,,,,,,,
Cc1cc(=O)oc2c(C)c(OCCCOc3ccc4c(C)cc(=O)oc4c3C)ccc12,> 100,> 100,,> 100,> 100,> 100,> 100,> 100,> 100,> 100,,,,,,,,,,
CCN(CC)CCCC(C)N=C(C1=C(C(=NC(C)CCCN(CC)CC)c2cccc(OC)c2)C(=O)NC1=O)c1cccc(OC)c1 (stereo not drawn),,,13.6,6.36,13.1,,2.13,2.34,2.08,5.94,1.47,2.83,1.81,2.98,0.841,0.825,0.966,,,
O=C(/C=C/c1ccccc1)n1c(-c2ccc(Cl)cc2)nc2ccccc21,3.22,2.92,6,2.93,5.71,,3.5,5.17,7.3,6.46,2.5,2.17,1.44,2.43,1.53,2.72,1.89,1.49,1.47,
COc1cc(CNC2c3cc4c(cc3C(c3cc(OC)c(OC)c(OC)c3)[C@H]3C(=O)OCC23)OCO4)cc(OC)c1OC (stereo partly drawn),,0.403,0.487,0.692,> 100,,,0.631,> 100,0.677,,,,,,,,,,
O=C(Nc1cccc(O)c1)C(=O)C(C(=O)c1ccc(Cl)c(Cl)c1)C1OC(=O)c2ccccc21 (stereo not drawn),40.6,,21.9,41.4,51.1,46.6,27.5,,> 100,62.6,,,,,,,,,,
O=[N+]([O-])C1Cc2ccccc2OC1c1ccccc1 (stereo not drawn),> 100,89.2,> 100,> 100,> 100,> 100,,83.2,> 100,> 100,,,,,,,,,,
O=C1CCCCCCCCCCC1CN1CCCCC1 (stereo not drawn),> 100,,82.4,> 100,,> 100,> 100,> 100,> 100,> 100,,,,,,,,,,
CCOC(=N)CC(=O)c1ccccc1,> 100,> 100,> 100,> 100,> 100,> 100,,> 100,> 100,> 100,,,,,,,,,,
Cn1c(=O)c2nc(-c3ccc(Cl)cc3)oc2n(C)c1=O,> 100,> 100,> 100,> 100,,> 100,> 100,,> 100,> 100,,,,,,,,,,
Cc1c(C(=O)/C=C/c2ccccc2O)c(=O)n(-c2ccccc2)n1C,> 100,55.5,64.6,,> 100,> 100,53.3,,> 100,54.9,,,,,,,,,,
CC(=O)On1c(-c2ccccc2-c2nc3ccccc3n2OC(C)=O)nc2ccccc21,> 100,> 100,> 100,> 100,> 100,,,> 100,> 100,> 100,,,,,,,,,,
CCCN(CCCC(NC(C)=O)C(=O)NCc1ccccc1)C(=O)NCCCl (stereo not drawn),> 100,> 100,> 100,> 100,,> 100,> 100,> 100,> 100,> 100,,,,,,,,,,
CC(C)(C)C1CCC2c3c([nH]c4ccccc34)C3C(=O)N(c4ccccc4)C(=O)C3C2C1 (stereo not drawn),18.8,23.5,21.6,> 100,5.18,55.3,12.5,,46,16.4,,,,,,,,,,
O=S1Nc2c(Cl)cc(Cl)c3c(Cl)cc(Cl)c(c23)N1,> 100,> 100,69.5,> 100,> 100,> 100,,,> 100,> 100,,,,,,,,,,
Cc1cc(Cl)ccc1NC(=O)C(=O)C(C(=O)c1ccc2ccccc2c1)C1OC(=O)c2ccccc21 (stereo not drawn),54.5,17.4,7.69,52.3,49.1,75.9,60.8,26.6,94.5,,,,,,,,,,,
O=C(OCc1ncc(-c2ccc(C(F)(F)F)cc2)c(NC2CCCCCC2)n1)c1c(F)c(F)c(F)c(F)c1F,24.7,30.7,21.2,42.5,39.1,,40.1,34.3,51.4,33.8,17.4,5.59,18.1,21.6,17.3,18.8,18.2,11.7,16.3,
COc1cccc(/C=C/C(=O)c2ccc(Cl)cc2Cl)c1,30.2,23,25.7,> 50,,25.8,40.2,,22.7,> 50,28.2,9.79,17.2,,11.9,,10.5,12.9,12.2,13.5
CSc1n[n+]2c(s1)SCCC2,> 100,> 100,,> 100,,,> 100,> 100,92.3,> 100,,,,,,,,,,
O=C1C(Cl)C(c2ccccc2O)N1n1cnc2ccccc2c1=O (stereo not drawn),> 100,,> 100,> 100,> 100,88.5,> 100,> 100,> 100,> 100,,,,,,,,,,
CCN(CC)CCCNC(=O)c1c2c(n3ccccc13)C(=O)c1ncccc1C2=O,8.64,2.45,,6.33,5.65,3.11,1.75,2.78,2.84,6.29,1.07,,0.44,1.59,0.225,0.586,1.17,2.49,1.07,1.31
